Measurements published in the supplement of paper PMC10307832.

Columns and labels:
Experiment in all cases: relative viability (nuclei count vs DMSO), 5 days (fraction); higher = more cells survive
[1] = compound: Cc1ccc(C(=O)Nc2cccc(C(F)(F)F)c2)cc1Nc1cncc(C(N)=O)c1 [ALW-II-49-7] + Cc1cc(Nc2cc(N3CCN(C)CC3)nc(Sc3ccc(NC(=O)C4CC4)cc3)n2)n[nH]1 [Tozasertib] (partner 0.1 µM)
Outline: (§1)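 Lung cancer cell lines were seeded in 1536-well plates and dosed by pin tool the next day, with either a single drug or a fixed anchor-drug dose combined with five library-drug doses (not always all listed) spaced in √10 steps. Five days later, one step fixed the cells and stained their nuclei (final 0.05% Triton X-100, 1% formaldehyde, 1 ug/ml Hoechst), and nuclei were counted on 4× images. Relative viability is the nuclei count in treated wells divided by the count in vehicle wells, and each value is the median of duplicate plates.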

[2] = compound: Cc1nc(Nc2ncc(C(=O)Nc3c(C)cccc3Cl)s2)cc(N2CCN(CCO)CC2)n1 [Dasatinib] + O=C(CCCCCCC(=O)Nc1ccccc1)NO [Vorinostat] (partner 1 µM)
Outline: as §1

[3] = compound: Cc1ccc(C(=O)Nc2cccc(C(F)(F)F)c2)cc1Nc1cncc(C(N)=O)c1 [ALW-II-49-7] + C[C@@H](Oc1cc(-c2cnn(C3CCNCC3)c2)cnc1N)c1c(Cl)ccc(F)c1Cl [Crizotinib] (partner 1 µM)
Outline: as §1

[4] = compound: Cc1nc(Nc2ncc(C(=O)Nc3c(C)cccc3Cl)s2)cc(N2CCN(CCO)CC2)n1 [Dasatinib] + CC(C)C[C@H](NC(=O)[C@H](Cc1ccccc1)NC(=O)c1cnccn1)B(O)O [Bortezomib] (partner 0.002 µM)
Outline: as §1

Cell Line | relative viability ([1]; first compound 0.08 µM) | relative viability ([1]; first compound 0.253 µM) | relative viability ([1]; first compound 0.8 µM) | relative viability ([1]; first compound 2.53 µM) | relative viability ([1]; first compound 8 µM) | relative viability ([2]; first compound 0.005 µM) | relative viability ([2]; first compound 0.01581 µM) | relative viability ([2]; first compound 0.05 µM) | relative viability ([2]; first compound 0.1581 µM) | relative viability ([2]; first compound 0.5 µM) | relative viability ([3]; first compound 0.08 µM) | relative viability ([3]; first compound 0.253 µM) | relative viability ([3]; first compound 0.8 µM) | relative viability ([3]; first compound 2.53 µM) | relative viability ([3]; first compound 8 µM) | relative viability ([4]; first compound 0.005 µM) | relative viability ([4]; first compound 0.01581 µM) | relative viability ([4]; first compound 0.05 µM) | relative viability ([4]; first compound 0.1581 µM) | relative viability ([4]; first compound 0.5 µM)
NCI-H2342 | 0.437 | 0.409 | 0.478 | 0.496 | 0.436 | 0.734 | 0.654 | 0.603 | 0.458 | 0.339 |  |  |  |  |  |  |  |  |  | 
SW 1573 | 0.187 | 0.248 | 0.186 | 0.196 | 0.151 | 0.968 |  | 0.649 | 0.538 | 0.491 | 0.884 | 0.747 | 0.748 | 1.1 | 0.707 | 0.875 | 0.881 | 0.861 | 0.618 | 0.395
NCI-H1993 | 0.524 | 0.605 | 0.567 | 0.629 | 0.632 | 0.722 | 0.73 | 0.692 | 0.394 | 0.435 | 0.744 | 1.01 | 0.884 | 1.06 | 1.06 | 0.743 | 0.851 | 1.34 | 0.847 | 0.497
NCI-H661 | 0.388 | 0.369 | 0.341 | 0.362 | 0.337 | 0.927 | 0.791 | 0.851 | 0.813 | 0.74 |  | 1 | 0.922 |  | 1.04 | 0.62 | 0.415 | 0.557 | 0.319 | 0.24
NCI-H520 | 0.504 | 0.463 | 0.482 | 0.31 | 0.328 | 0.677 | 0.476 | 0.418 | 0.227 | 0.229 | 0.751 | 0.638 |  | 0.682 | 0.723 | 0.588 | 0.22 | 0.358 | 0.146 | 0.178
ChaGo-K-1 | 0.248 | 0.238 | 0.22 | 0.212 | 0.2 | 0.735 | 0.737 | 0.704 | 0.565 | 0.47 | 1.13 | 1.12 | 1.08 | 0.972 | 1.04 | 0.847 | 1.03 | 0.99 | 0.891 | 0.864
NCI-H2085 | 0.753 | 0.895 | 0.787 | 0.743 | 0.568 | 0.831 | 0.632 | 0.567 | 0.259 | 0.202 | 0.762 | 0.889 | 0.898 | 0.905 | 0.938 | 1.09 | 0.958 | 0.86 | 0.397 | 0.262
NCI-H1651 | 0.608 | 0.852 | 0.543 | 0.566 | 0.377 | 0.546 | 0.433 | 0.481 | 0.465 | 0.359 | 0.947 | 0.767 | 0.823 | 0.862 | 0.835 | 0.947 | 0.873 | 0.795 | 0.859 | 0.825
SK-MES-1 | 0.878 | 0.986 | 0.843 | 0.844 | 0.568 | 1.19 | 0.961 | 0.977 | 0.503 | 0.206 | 0.885 | 0.979 | 0.948 | 0.926 | 0.7 |  |  |  |  | 
NCI-H1703 |  |  |  |  |  |  |  |  |  |  | 0.859 | 0.713 | 0.554 | 0.309 | 0.211 | 0.285 | 0.22 | 0.247 | 0.18 | 0.121
NCI-H522 | 0.622 | 0.499 | 0.554 | 0.507 | 0.647 | 1.03 | 0.822 | 0.962 | 0.788 | 0.84 |  |  |  |  |  |  |  |  |  | 
NCI-H1563 |  |  |  |  |  |  |  |  |  |  | 0.927 | 0.842 | 0.858 | 0.774 | 0.867 | 0.703 | 0.607 | 0.632 | 0.647 | 0.562
NCI-H1793 | 0.366 | 0.301 | 0.338 | 0.296 | 0.321 | 0.56 | 0.571 | 0.46 | 0.357 | 0.344 |  |  |  |  |  |  |  |  |  | 
NCI-H358 | 0.0887 | 0.107 | 0.11 | 0.0927 | 0.085 | 0.513 | 0.47 | 0.388 | 0.15 | 0.128 | 0.616 | 0.412 | 0.486 | 0.435 | 0.539 |  |  |  |  | 
SW 900 | 0.573 | 0.568 | 0.479 | 0.279 | 0.377 | 0.356 | 0.282 | 0.289 | 0.163 | 0.192 |  |  |  |  |  |  |  |  |  | 
NCI-H1792 |  |  |  |  |  |  |  |  |  |  | 0.795 | 0.866 | 0.819 | 0.827 | 0.878 | 0.932 | 0.897 | 0.898 | 0.681 | 0.505
NCI-H1623 | 0.339 | 0.402 | 0.395 | 0.396 | 0.579 |  |  |  |  |  |  |  |  |  |  |  |  |  |  | 
IA-LM |  |  |  |  |  | 1.13 | 0.89 | 1.03 | 0.691 | 0.538 | 0.825 | 0.754 | 0.745 | 0.346 | 0.18 | 1.14 | 0.882 | 1.03 | 0.766 | 0.615
NCI-H2170 | 0.724 | 0.817 | 0.73 | 0.618 | 0.767 | 0.797 | 0.72 | 0.743 | 0.467 | 0.334 | 1.3 | 1.12 | 1.3 | 1.21 | 1.09 |  |  |  |  | 
EBC-1 |  |  |  |  |  |  |  |  |  |  | 0.176 | 0.177 | 0.203 | 0.171 | 0.182 | 0.583 | 0.459 | 0.486 | 0.49 | 0.436
NCI-H1944 | 0.234 | 0.249 | 0.251 | 0.246 | 0.254 | 0.573 | 0.527 | 0.452 | 0.196 | 0.169 | 1.14 | 0.981 | 1.06 | 1.09 | 1.12 |  |  |  |  | 
LK-2 |  | 0.191 | 0.2 | 0.175 | 0.151 | 0.314 | 0.288 | 0.21 | 0.19 | 0.148 | 0.216 | 0.211 | 0.215 | 0.262 | 0.226 |  |  |  |  | 
NCI-H1299 |  |  |  |  |  |  |  |  |  |  | 0.972 | 0.954 | 0.963 | 0.861 | 0.736 | 1.04 | 1.02 | 1.14 | 0.612 | 0.485
